Patent US20040097432A1, “Method of reducing cholesterol” (ACCESS BUSINESS GROUP INTERNATIONAL LLC., priority 2002, published 2004)

Test system: HepG2 hepatocytes
Assay: Inhibition of cholesterol synthesis in HepG2 hepatocytes (secreted cholesterol and cholesteryl ester, AmplexRed)
Type: cell-based
Method: HepG2 hepatocytes were used as a model to study the inhibition of cholesterol synthesis according to the procedures described in Dashti, N., et al., J. Lipid Res. 28:423-436 (1987) and Mohammadi, A., et al., Arterioscler. Thromb. Vasc. Biol., […]:783-793 (1998). […] Amounts of secreted cholesterol and cholesteryl ester are measured from acetate fed hepatocyte culture media using a fluorescent indicator AmplexRed.
The same cholesterol inhibition model used in Example I was used to determine the cholesterol synthesis inhibition of theaflavins, including theaflavin and gallate esters of theaflavin.

Structure (SMILES) | inhibition at 50 µg/mL (Homo sapiens, 0.05 mg/ml theaflavin, acetate fed HepG2 culture media, FIG. 1, read-out: inhibitory effect (cholesterol synthesis/release)) [%] | dose specific response of hepatocytes compared to Lipotor (same weight basis (tablet weight, 6.7% actives), HepG2, FIG. 1) | cholesterol inhibition activity (contribution among materials tested) (HepG2, dose response FIG. 2, materials of Table I)
O=c1c(O)cc([C@H]2Oc3cc(O)cc(O)c3C[C@H]2O)cc2c([C@H]3Oc4cc(O)cc(O)c4C[C@H]3O)cc(O)c(O)c12 [theaflavin, Theaflavin] | ~30 | comparable or slightly better than Lipotor® | 
O=C(O[C@@H]1Cc2c(O)cc(O)cc2O[C@@H]1c1cc(=O)c(O)c2c(O)c(O)cc([C@H]3Oc4cc(O)cc(O)c4C[C@H]3O)c2c1)c1cc(O)c(O)c(O)c1 [theaflavin-3-gallate] |  |  | provided much of the cholesterol inhibition activity
